{"source": "patent US11788147B2", "about": "“Markers of triple-negative breast cancer and uses thereof” (Vanderbilt University, priority 2011, dated 2023)", "key": {"[1]": {"tested_on": "HCC1806 and MDA-MB-468 xenograft tumors", "experiment": "Xenograft tumor studies (Example 1), basal-like", "type": "in vivo, mice", "settings": "cisplatin i.p. 8 mg/kg/wk, approximately 3 weeks, relative to vehicle control; P<0.0001", "experimental": "Xenograft tumor studies. Five-week-old female athymic nude-Foxnlnu mice (Harlan Sprague-Dawley) were injected (s.c.) with either approximately 5×10^6 (CAL-51, HCC1806, MDA-MB-468, and SUM185PE) or approximately 10×10^6 (CAL-148 and SUM159PT) cells suspended in medium (200 μl) into each flank using a 22-gauge needle. The protocols describing the process of xenograft tumor formation in athymic mice were reviewed and approved by the Vanderbilt Institutional Review Board. Once tumors reached a volume of 25-50 mm^3, mice were randomly allocated to treatment or vehicle arms. Treatments included bicalutamide per oral (100 mg/kg/d), cisplatin i.p. (8 mg/kg/wk), or NVP-BEZ235 per oral (50 mg/kg/d) in 1:9 N-methylpyrolidone: PEG300. Tumor diameters were serially measured at the indicated times with digital calipers, and tumor volumes were calculated as width^2×length/2. Data points reflect the means and SEM for 16 tumors per treatment."}, "[2]": {"tested_on": "LAR TNBC cell lines", "experiment": "Cell proliferation/viability assay (alamarBlue) and IC50 determination", "type": "cell-based, human", "settings": "LAR lines, 72 hours", "experimental": "Cell proliferation/viability assays and IC50 determinations. All cell lines and culture conditions used can be found in Supplemental Methods (Table 5). Short tandem repeat (STR) DNA fingerprinting analysis was performed on all TNBC cell lines used in this study (Cell Line Genetics). […] Breast cancer cell lines and HMECs were seeded (3,000-10,000 cells) in quadruplicate wells in 96-well plates. […] Medium was then replaced with either fresh medium (control) or medium containing half-log serial dilutions of the following drugs: 0.3-30 μM olaparib (ChemieTek), 0.3-30 μM veliparib (ChemieTek), 1-100 μM bicalutamide (IPR Pharmaceutical), 0.3-30 μM cisplatin (APP Pharmaceutical), 3-300 nM NVP-BEZ235 (Chemdea), 10-1000 nM 17-DMAG (ChemieTek), and 0.1-10 μM dasatinib (LC Laboratories). Viability was determined from measuring fluorescent intensity after metabolic reduction of alamarBlue in the presence/absence of the drug after 72 hours. Viability assays were performed in triplicate, and replicates were normalized to untreated wells. […] For analysis of cell-line drug assays, data generated from the different cell lines representative of TNBC subtypes were compared using the nonparametric Mann-Whitney U test. All analyses and graphic representations were performed using Prism software (version 4.0c; GraphPad Software), and values are represented as the mean±SEM."}, "[3]": {"tested_on": "heterogeneous TNBC patient population", "settings": "neoadjuvant, single agent; cited from earlier work"}}}
{"smiles": "N.N.[Cl][Pt][Cl]", "note": "[cisplatin]", "values": [{"measurement": "xenograft tumor growth", "setting": "[1]", "value": "significantly growth inhibited"}, {"measurement": "IC50", "setting": "[2]", "value": 15, "unit": "µM"}, {"measurement": "pCR", "setting": "[3]", "value": 21, "unit": "%"}]}
